Laboratory results from patent US12195427B2, “MASP-2 inhibitors and methods of use” (priority 2018, dated 2025).

Target: MASP-2 CCP2-SP (Homo sapiens (Human), UniProt O00187)
Assay: MASP-2 co-crystallization, X-ray crystallography and structure analysis (H-bonds, van der Waals contacts);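 as to Ligand-pharmacophore element distance, pharmacophore element C2: distance from averaged pharmacophore element to bound ligand; missing value means element absent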;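 as to Ligand-pharmacophore element distance, pharmacophore element C3: distance from averaged pharmacophore element to bound ligand; missing value means element absent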;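 as to Ligand-pharmacophore element distance, pharmacophore element C4: distance from averaged pharmacophore element to bound ligand; missing value means element absent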;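 as to Ligand-pharmacophore element distance, pharmacophore element C5: distance from averaged pharmacophore element to bound ligand; missing value means element absent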
Set-up: van der Waals contact distance, MASP-2 HIS 483 atom CD2 / van der Waals contact distance, MASP-2 HIS 483 atom NE2 / van der Waals contact distance, SER 654 C to compound atom / van der Waals contact distance, SER 654 O to compound atom / van der Waals contact distance, TRP 655 C to compound atom / van der Waals contact distance, MASP-2 GLY 528 atom CA / van der Waals contact distance TRP 655 atom CZ3 / van der Waals contact distance TRP 655 atom N / van der Waals contact distance TRP 655 atom CE3 / van der Waals contact distance GLY 656 atom C / van der Waals contact distance GLY 656 atom CA / van der Waals contact distance GLY 656 atom O / van der Waals contact distance, MASP-2 TYR 607 atom CD1 / van der Waals contact distance, MASP-2 PRO 606 atom O / d(C3,CA1) / d(CA1,N1)2 / d(H4,O1) / d(H4,O2) / d(O1,O2) / d(CA1,O2) / d(CA6,O1) / d(CA6,O2) / d(CA1,C5) / d(O2,H3) / d(N2,C2) / d(CA5,N2) / d(N2,C4) / d(N2,C6) / d(N2,CA3) / d(N2,O3) / d(O4,H2): unit not given beside the values
Conditions: for Ligand-pharmacophore element distance, pharmacophore element C2 / Ligand-pharmacophore element distance, pharmacophore element C3 / Ligand-pharmacophore element distance, pharmacophore element C4 / Ligand-pharmacophore element distance, pharmacophore element C5 / Ligand-pharmacophore element distance, pharmacophore element C6 / Ligand-pharmacophore element distance, pharmacophore element C7 / Ligand-pharmacophore element distance, pharmacophore element CA1 / Ligand-pharmacophore element distance, pharmacophore element CA2 / Ligand-pharmacophore element distance, pharmacophore element CA3 / Ligand-pharmacophore element distance, pharmacophore element CA4 / Ligand-pharmacophore element distance, pharmacophore element CA5 / Ligand-pharmacophore element distance, pharmacophore element CA6: Table A4-1
Source text: This example illustrates the preparation of recombinant MASP-2 protein, based on UniProt O00187, human mannan-binding lectin serine protease 2. Expression constructs for human MASP-2 CCP2-SP and CCP2-SP-6HIS were generated for recombinant expression in E. coli cells.
Typically, crystallization hits were obtained by screening against […] 96-well crystallization reagent kits (GRAS6, GRAS2, Hampton Research; MORPHEUS, Molecular Dimensions; Wizard 1&2 Cryo, Rigaku Reagents) and crystal growth was inspected by optical microscopy. Crystals were used directly or further optimized for X-ray diffraction. Crystals were captured with cryogenic loops and dipped into liquid nitrogen directly or cryoprotected with a 20% glycerol in crystallization formulation before flash-cooling in liquid nitrogen.
Thereafter crystals are transferred once or twice for soaking within the crystallization solution containing the MASP-2 inhibitor.
Crystals were diffracted with synchrotron X-rays of […] and X-ray diffraction datasets were collected at beamlines SSRL BL9-2, BL14-1, BL12-2 as well as ALS sector 5 using Dectris Pilatus and Eiger detectors. Structures were determined by molecular replacement using portions of the structure 1Q3X as search models and partially refined with Buster 2.10.2 or Refmac 5.8. […] When multiple ligand poses were observed, for instance arising from multiple molecules in the asymmetric unit or refined dual poses within the same molecule, only one pose was selected and analyzed.
LigPlot+ calls these ‘nonbonded contacts’ or ‘hydrophobic contacts’. Despite the name, there are atom pairings that include possible H-bonds. Thus, in some instances, the Table A2 also contains H-bond interactions.

[1] = Table A5-1 pharmacophore: distance between elements, S2/S1 region
[2] = Table A5-2 pharmacophore distance, S3/S4 region
[3] = Table A7-1, between pharmacophore elements of the bound compound
[4] = Table A7-2, between pharmacophore elements of the bound compound
[5] = Table A8-6, nearest protein atom in cell to the left

Chain of MASP-2 CCP2-SP (O00187 445-686): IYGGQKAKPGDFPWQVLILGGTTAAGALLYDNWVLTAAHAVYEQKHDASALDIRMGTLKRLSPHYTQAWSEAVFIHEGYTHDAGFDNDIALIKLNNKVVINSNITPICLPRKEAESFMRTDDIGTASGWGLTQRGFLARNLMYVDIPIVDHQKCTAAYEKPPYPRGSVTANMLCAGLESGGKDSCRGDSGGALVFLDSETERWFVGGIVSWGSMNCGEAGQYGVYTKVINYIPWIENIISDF
Chain of MASP-2 CCP2-SP (O00187 364-432 partner): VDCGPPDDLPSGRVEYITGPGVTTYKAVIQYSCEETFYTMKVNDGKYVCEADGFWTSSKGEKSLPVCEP

| Compound | Ligand-pharmacophore element distance, pharmacophore element C2 | Ligand-pharmacophore element distance, pharmacophore element C3 | Ligand-pharmacophore element distance, pharmacophore element C4 | Ligand-pharmacophore element distance, pharmacophore element C5 | Ligand-pharmacophore element distance, pharmacophore element C6 | Ligand-pharmacophore element distance, pharmacophore element C7 | Ligand-pharmacophore element distance, pharmacophore element CA1 | Ligand-pharmacophore element distance, pharmacophore element CA2 | Ligand-pharmacophore element distance, pharmacophore element CA3 | Ligand-pharmacophore element distance, pharmacophore element CA4 | Ligand-pharmacophore element distance, pharmacophore element CA5 | Ligand-pharmacophore element distance, pharmacophore element CA6 | d(CA1,O1) [1] | d(CA1,O2) [1] | d(H4,O1) [1] | d(H4,O2) [1] | d(O1,O2) [1] | d(N2,CA2) [2] | d(O2,H3) [2] | d(O2,N2) [2] | further results |
| --- | --- | --- | --- | --- | --- | --- | --- | --- | --- | --- | --- | --- | --- | --- | --- | --- | --- | --- | --- | --- | --- |
| C[C@H](NC(=O)[C@H]1C[C@@H](c2ccccc2)CN1)C(=O)NCc1ccc2c(N)nccc2c1.Cl.Cl [1089_A] | 0 | 0 | 0 | 0 | 0 | 0 | 1 | 0.89 | 0 | 0 | 0 | 0 | 5.75 | 5.19 | 3.13 | 3.70 | 3.34 | 5.10 | 5.94 | 2.66 | a(CA1, O1, O2) (Table A6-1 pharmacophore angle): 98.23; a(O1, O2, H4) (Table A6-1 pharmacophore angle): 122.16; a(O1, O2, H3) (Table A6-2 pharmacophore angle): 153.00; a(O1, O2, N2) (Table A6-2 pharmacophore angle): 141.72; a(O2, N2, CA2) (Table A6-2 pharmacophore angle): 154.37; Pharmacophore torsion angle a(H4, O1, O2, H3) [3]: 88.95; Pharmacophore torsion angle a(H4, O1, O2, N2) [3]: −175.67; Pharmacophore torsion angle a(O1, H4, O2, CA1) [3]: −95.88; Pharmacophore torsion angle a(O1, O2, N2, CA2) [4]: 137.41; Pharmacophore protein distance to MET_658 (first MET_658 column) (Table A8-6, 6th residue column, nearest protein atom in cell to the left): 2.61; Pharmacophore protein distance to MET_658 (second MET_658 column) (Table A8-6, 9th residue column, nearest protein atom in cell to the left): 3.31; Pharmacophore protein distance to GLY_528 [5]: 3.59; Pharmacophore protein distance to PHE_529 [5]: 2.81; Pharmacophore protein distance to PRO_608 [5]: 3.90; Pharmacophore protein distance to SER_611 [5]: 2.79; Pharmacophore protein distance to TRP_655 (Table A8-6, pharmacophore elements C6, CA3, O3, H1, nearest protein atom in cell to the left): 3.57 |
| Cc1nc(N)ccc1CNC(=O)[C@H](C)NC(=O)[C@H]1C[C@@H](c2cccc3ccccc23)CCN1.Cl.Cl [1297_2] | 0.34 | 0.17 | 0 | 0 | 0 | 0 | 0.47 | 0.22 | 0 | 1.25 | 0 | 0 | 4.48 | 3.69 | 4.41 | 3.62 | 3.57 | 5.78 | 3.98 | 2.84 | d(C3,CA1) [1]: 2.88; d(CA1,N1)2 [1]: 1.37; d(N2,C2) [2]: 1.47; a(C3, CA1, O1) (Table A6-1 pharmacophore angle): 150.01; a(CA1, O1, O2) (Table A6-1 pharmacophore angle): 103.93; a(O1, O2, H4) (Table A6-1 pharmacophore angle): 128.26; a(N1, CA1, O1) b) (Table A6-1 pharmacophore angle, Methyl-amino-pyridine compounds): 174.54; a(O1, O2, H3) (Table A6-2 pharmacophore angle): 144.48; a(O1, O2, N2) (Table A6-2 pharmacophore angle): 141.45; a(O2, N2, C2) (Table A6-2 pharmacophore angle): 127.48; a(O2, N2, CA2) (Table A6-2 pharmacophore angle): 154.79; Pharmacophore torsion angle a(C3, CA1, O1, H4) [3]: 29.10; Pharmacophore torsion angle a(H4, O1, O2, H3) [3]: 51.75; Pharmacophore torsion angle a(H4, O1, O2, N2) [3]: 141.21; Pharmacophore torsion angle a(N1, CA1, O1, H4) [3]: 23.27; Pharmacophore torsion angle a(O1, H4, O2, CA1) [3]: −87.24; Pharmacophore torsion angle a(O1, O2, N2, C2) [3]: 116.16; Pharmacophore torsion angle a(O1, O2, N2, CA2) [4]: 126.84; Pharmacophore torsion angle a(O1, O2, N2, CA4) [4]: 106.20 |
